{"source": "patent US12447156B2", "about": "“Treating progressive familial intrahepatic cholestasis (PFIC) with IBAT inhibitors” (ALBIREO AB, priority 2020, dated 2025)", "key": {"[1]": {"test_system": "patients with PFIC", "experiment": "Pooled PEDFIC 1/2 (up to 72 weeks): serum bile acids, pruritus and sleep parameters, correlations, responders", "assay_type": "in vivo, human", "protocol": "Methods: PEDFIC 1 was a randomized, double-blind study in children with PFIC1 or PFIC2; patients received either once-daily placebo, odevixibat 40 μg/kg, or odevixibat 120 μg/k g for 24 weeks. PEDFIC 2 is an ongoing, 72 week extension study in patients with any type of PFIC in which all patients receive odevixibat 120 μg/kg/day. In both PEDFIC 1 and PEDFIC 2, eligible patients had elevated serum bile acids and significant pruritus at screening. Here, patient pruritus and sleep-related data (including tiredness during the day) were included, which were evaluated twice daily by caregivers using the validated PRUCISION scale via an electronic diary. Pruritus and tiredness responses range from 0 to 4, with higher scores indicating worse symptoms; other sleep assessments include questions with Yes/No response s. Correlations between percentage change from baseline in serum bile acids and change from baseline in observer-reported diary data (pruritus, sleep characteristics) were assessed as post hoc analyses and are summarized with Pearson coefficient s (r)."}, "[2]": {"test_system": "patients with PFIC", "experiment": "Pooled PEDFIC 1/2: relationships between changes in autotaxin, pruritus and serum bile acids (weeks 25-48)", "assay_type": "in vivo, human", "protocol": "Phase 3 study data of 77 patients treated with odevisibat was pooled from the PEDFIC 1 and PEDFIC 2 studies. In PEDFIC 1, patients received placebo or odevixibat 40 or 120 μg/kg/day for 24 weeks; in PEFFIC 2, patients were enrolled in an ongoing extension study, with all patients receiving 120 μg/kg/day. At the data cutoff, 77 patients had received odevixibat. The median length of odevixibat treatment was 37 weeks, with a range of 1-108 weeks. Most patients (88%) were continuing on treatment. Characteristics of patients with available data at weeks 25-48 who were included in the current analyses were generally similar to the overall study population.\nAutotaxin was assessed prior to treatment and throughout PEDFIC 1 and PEDFIC 2. Caregivers evaluated patients' pruritus using the validated PRUCISION scale, where scores range from 0 to 4; higher scores indicate worse symptoms. Serum bile acid measurements were taken at all study visits.\nRelationships between changes from baseline to weeks 25-48 in autotaxin, pruritus, and serum bile acid levels were assessed as post hoc analyses. Changes from baseline were summarized descriptively. Pearson coefficients and P values were calculated for correlations. Responders were defined as ≥70% reduction from baseline in serum bile acids or serum bile acids ≤70 μmol/L at last assessment up to week 48 and/or pruritus score reduction of ≥1 point from baseline based on last available monthly or 12-week interval score up to week 48.\nValues are based on last assessment up to week 48. For serum bile acids, this was the average value from weeks 46 and 48 when available; otherwise, the last available assessment in the interval was used. For pruritus, last monthly score was used when available; otherwise, the score from the last 12 weeks was used. For autotaxin, the last assessment within the interval was used."}, "[3]": {"settings": "patients analyzed in correlation analyses, N=44"}}, "data": [{"smiles": "CCCCC1(CCCC)CN(c2ccccc2)c2cc(SC)c(OCC(=O)N[C@@H](C(=O)N[C@@H](CC)C(=O)O)c3ccc(O)cc3)cc2S(=O)(=O)N1", "note": "[Odevixibat, 1,1-dioxo-3,3-dibutyl-5-phenyl-7-methylthio-8-(N-{(R)-α-[N-((S)-1-carboxypropyl)carbamoyl]-4-hydroxybenzyl}carbamoylmethoxy)-2,3,4,5-tetrahydro-1,2,5-benzothiadiazepine]", "values": [{"measurement": "overall incidence of any event of diarrhea", "setting": "[1]; pooled PEDFIC 1/2, 18/84 patients", "value": 21, "unit": "%"}, {"measurement": "patients with any TEAE", "setting": "[1]; pooled PEDFIC 1/2, 71 of 84 patients, up to 72 weeks", "value": 85, "unit": "%"}, {"measurement": "TEAEs mild or moderate in severity", "setting": "[1]; pooled PEDFIC 1/2, 84 patients", "value": 90, "unit": "%"}, {"measurement": "serious drug-related TEAEs or deaths", "setting": "[1]; pooled PEDFIC 1/2, 84 patients", "value": "No serious drug-related TEAEs or deaths occurred"}, {"measurement": "patients who met criteria for serum bile acid response", "setting": "[1]; pooled PEDFIC 1/2, during odevixibat treatment (up to 72 weeks)", "value": "approximately 40%"}, {"measurement": "Serum bile acids, Change From Baseline to Weeks 49-72, Mean", "setting": "[1]; pooled PEDFIC 1/2, n 32, baseline 246 μmol/L", "value": "−53% (9%)"}, {"measurement": "Tiredness score, Change From Baseline to Weeks 49-72, Mean (SE)", "setting": "[1]; pooled PEDFIC 1/2, n 34, baseline 2.3", "value": "−1.2 (0.2)"}, {"measurement": "Pruritus score, Change From Baseline to Weeks 49-72, Mean (SE)", "setting": "[1]; pooled PEDFIC 1/2, n 34, baseline 2.8", "value": "−1.5 (0.2)"}, {"measurement": "Number of awakenings, Change From Baseline to Weeks 49-72, Mean (SE)", "setting": "[1]; pooled PEDFIC 1/2, n 34, baseline 8", "value": "−7 (3)"}, {"measurement": "Days taking medications to induce sleep, Change From Baseline to Weeks 49-72, Mean (SE)", "setting": "[1]; pooled PEDFIC 1/2, n 34, baseline 24", "value": "−3 (4) %"}, {"measurement": "Days with scratching associated with bleeding, Change From Baseline to Weeks 49-72, Mean (SE)", "setting": "[1]; pooled PEDFIC 1/2, n 34, baseline 38", "value": "−21 (7) %"}, {"measurement": "Days patient slept with caregiver, Change From Baseline to Weeks 49-72, Mean (SE)", "setting": "[1]; pooled PEDFIC 1/2, n 34, baseline 67", "value": "−38 (8) %"}, {"measurement": "Days patient needed soothing, Change From Baseline to Weeks 49-72, Mean (SE)", "setting": "[1]; pooled PEDFIC 1/2, n 34, baseline 75", "value": "−48 (9) %"}, {"measurement": "Days patient needed help falling asleep, Change From Baseline to Weeks 49-72, Mean (SE)", "setting": "[1]; pooled PEDFIC 1/2, n 34, baseline 78", "value": "−55 (8) %"}, {"measurement": "patients achieving a treatment response (serum bile acid and/or pruritus criteria)", "setting": "[1]; pooled PEDFIC 1/2, up to 72 weeks", "value": "approximately 60%"}, {"measurement": "tolerability", "setting": "[1]; up to 72 weeks of odevixibat treatment", "value": "generally well tolerated"}, {"measurement": "Autotaxin, percentage change from baseline to weeks 25-48, mean (SE)", "setting": "[2]; patients analyzed in correlation analyses, N=33", "value": "−50% (6%)"}, {"measurement": "Autotaxin, change from baseline to weeks 25-48, mean (SE)", "setting": "[2]; patients analyzed in correlation analyses, N=33, last assessment up to week 48", "value": "−1696 (266) ng/ml"}, {"measurement": "Serum bile acids, change from baseline to weeks 25-48, mean (SE)", "setting": "[2]; [3]", "value": "−140 (25) μmol/L"}, {"measurement": "Serum bile acids, percentage change from baseline to weeks 25-48, mean (SE)", "setting": "[2]; [3]", "value": "−49% (8%)"}, {"measurement": "Pruritus score (range, 0-4), change from baseline to weeks 25-48, mean (SE)", "setting": "[2]; patients analyzed in correlation analyses, N=44, PRUCISION scale", "value": "−1.4 (0.2)"}, {"measurement": "effect on autotaxin, pruritus and serum bile acids", "setting": "[2]; patients with PFIC", "value": "reduced autotaxin, pruritus, and serum bile acids"}]}]}
